# Source: patent US6083941A, “Inhibition of NMDA receptor activity by pregnenolone sulfate derivatives” (Trustees of Boston University, priority 1998, dated 2000)
# Structures can show the parent of a compound that is named as a salt. Where two headings read alike, the source gives them in different places.
# Key:
# mice = test: Behavioral observational assessment after i.p. steroid; assay type: in vivo; settings: 25 mg/kg i.p., 30 min. after injection
# Experimental: To test for behavioral effects, PS, 5β3αS, 5β3αHS, βE2 (17)HS, or βE2 (3)HS (7 mg/ml in DMSO) was administered to mice i.p. at 25 mg/kg (5 animals per drug group). Behavioral assessments were made 30 min. after injection using a comprehensive observational assessment of motor-affective responses, sensory-motor responses, posture, muscle tone, equilibration, CNS excitation, and autonomic function (Irwin, R. P., et al., NeuroSci. Lett., 141:30-44 (1968)). […] The latency to loss of righting reflex was 2.5±0.5 min., and the latency to regain the righting reflex was 83±11 min. The rapidity of onset argues that 5β3αHS readily crosses the blood brain barrier.
# [1] = test system: NMDA-induced seizure and death in mice; test: NMDA-induced seizure and death (100 mg/kg NMDA challenge); assay type: in vivo; settings: steroid 25 mg/kg i.p., DMSO 50%
# Experimental: 5β3αHS (25 mg/kg, i.p.) protects mice from NMDA-induced death. None of the steroids tested altered the latency to NMDA-induced seizure. However, 100% of the animals that received 5β3αHS survived the 100 mg/kg NMDA challenge compared to 50% for DMSO, 75% for 5β3αS and E2 (3)HS, and 50% for E2 (17)HS.
# [2] = test system: NMDA-induced convulsion and mortality in mice; test: NMDA-induced convulsion test (200 mg/kg NMDA); assay type: in vivo; settings: mice, i.v. administration, FIG. 8
# Experimental: Male CD-1 mice (Charles River Laboratories, Wilmington, Mass.) weighing 20-25 g were used for the NMDA-induced convulsion test. Mice were injected intraperitoneally with the test compound dissolved in DMSO or with vehicle. NMDA (200 mg/kg, i.p.) was injected either 2 minutes after intravenous injection of test compound or 20 minutes after intraperitoneal injection of test compound.
# NMDA receptor = test: Whole cell patch clamp, NMDA-induced current in cultured chick spinal cord neurons; assay type: cell-based; settings: for inhibition of the NMDA response by extracellular steroid: 100 μM extracellular; for IC50: read-out: IC50 for inhibition of the NMDA response
# Experimental: (§1) Cultures of dissociated spinal cord neurons were prepared as previously described (Farb, D. H., et al., J. Cell Biol., 80:651-661 (1979)). Briefly, the dissociated cells from 7-day chick embryos were plated on collagen-coated 35-mm tissue culture dishes in Eagle's minimum essential medium supplemented with 2.4 mM glutamine, 10% (v/v) heat-inactivated horse serum, 5% (v/v) chick embryo extract and antibiotics. Cultures were maintained in a humidified atmosphere of 5% CO2, 95% air at 37°. Cytarabine (1 μM) was added to the culture medium after 36 hr. of the initial plating to inhibit the proliferation of non-neuronal cells. One day later, this medium was replaced with a similar medium supplemented with 20.5 mM glucose, 19 mM KCl, and 2.5% chick embryo extract. Fresh medium was added twice weekly. Cultured neurons were used in experiments within 2-4 weeks after plating.
# Experiments were carried out in 35-mm tissue culture dishes on the stage of an inverted phase contrast microscope. Whole cell currents were recorded by the whole cell variant of the patch clamp technique (Hamill, O. P., et al., Pfagers Arch. 891:85-100 (1981)). Patch electrodes had tip openings of about […] and resistances of 3-8 M.OMEGA. using an intracellular solution comprised of the following (in mM): 140 CsCl, 11 EGTA, and 10 HEPES (pH adjusted to 7.2 with CsOH). In experiments in which a high concentration of glycine was used, the intracellular solution was replaced with a low chloride (10 mM) pipette solution. This solution contained the following (in mM): 140 potassium gluconate, 10 KCl, 8 sodium gluconate, 11 EGTA, and 10 HEPES (pH adjusted to 7.2 with KOH). To prevent a marked run-down of NMDA-induced current at high NMDA concentrations, 4 mM potassium ATP was included in the intracellular solution. The bath solution contained the following (in mM): 150 NaCl, 4 KCl, 1 CaCl2, and 10 HEPES (pH adjusted to 7.2 with NaOH). No glycine was added to the solutions containing NMDA, because no additional glycine was required to obtain a robust NMDA response, and there was no effect of a maximal concentration (10 μM) of glycine on 5β3αS inhibition of the NMDA response. All experiments were performed at room temperature (23-25° C.).
# Recordings were made using an Axopatch 1B patch clamp apparatus (Axon Instruments, Burlingame, Calif.). Cells with series resistances greater than 10 M.OMEGA. were rejected. After partial compensation, series resistances were between 3.5 and 6 M.OMEGA.. The holding potential was maintained at -70 mV unless otherwise noted. Currents were filtered at 1 kHz using an eight-pole Bessel filter (-3 dB) and digitized ([…]) using an on-line data acquisition system (pClamp, Axon Instruments).
# Drug solutions were applied to single neurons by pressure ejection (15 psi) from seven-barrel pipettes. Seven-barrel pressure pipettes were positioned approximately […] from the neuronal soma. Under these conditions, the drug solution in the pressure pipette rapidly and effectively replaces the solution surrounding the target neurons with less than 10% dilution (Choi, D. W., et al., Nature (Lond.) 269:342-344 (1977); Chan, C. Y., et al., Life Sci., 83:2061-2069 (1983); Chan, C. Y. and Farb, D. H., J. Neurosci., 5:2365-2373 (1985)). All drugs were obtained from Sigma, with the except of AMPA hydrobromide (Research Biochemicals) and steroids (Steraloids). Stock solutions of steroids were prepared in dimethyl sulfoxide, the final concentration of which was 0.5% (v/v). To obviate the possible effects of dimethyl sulfoxide on the relevant agonist-induced currents, all other drug solutions including NMDA, kainate, AMPA and external buffer (in the pressure pipette) also contained 0.5% dimethyl sulfoxide. […]
# kainate receptors = test: Whole cell patch clamp, kainate-induced current in cultured chick spinal cord neurons; assay type: cell-based; settings: 100 μM steroid; -70 mV
# Experimental: as §1
# (§2) Experiments were carried out in 35-mm tissue culture dishes on the stage of an inverted phase contrast microscope. Whole cell currents were recorded by the whole cell variant of the patch clamp technique (Hamill, O. P., et al., Pfagers Arch. 891:85-100 (1981)). Patch electrodes had tip openings of about […] and resistances of 3-8 M.OMEGA. using an intracellular solution comprised of the following (in mM): 140 CsCl, 11 EGTA, and 10 HEPES (pH adjusted to 7.2 with CsOH). […]
# AMPA receptors = test: Whole cell patch clamp, AMPA-induced current in cultured chick spinal cord neurons; assay type: cell-based; settings: 100 μM steroid; -70 mV
# Experimental: as §1, §2
# [3] = biological target: T1, recombinant NMDA receptors (NR1100 and NR2A subunits) (Rattus norvegicus, UniProt P35439+Q00959); test: Two electrode voltage-clamp of Xenopus oocytes expressing recombinant NMDA receptors; assay type: cell-based
# T1 construct: expressed in transfected cells; host or cells: Xenopus laevis oocytes injected with in vitro transcribed mRNA
# T1 sequence (Q00959 23-1464, other chains not shown): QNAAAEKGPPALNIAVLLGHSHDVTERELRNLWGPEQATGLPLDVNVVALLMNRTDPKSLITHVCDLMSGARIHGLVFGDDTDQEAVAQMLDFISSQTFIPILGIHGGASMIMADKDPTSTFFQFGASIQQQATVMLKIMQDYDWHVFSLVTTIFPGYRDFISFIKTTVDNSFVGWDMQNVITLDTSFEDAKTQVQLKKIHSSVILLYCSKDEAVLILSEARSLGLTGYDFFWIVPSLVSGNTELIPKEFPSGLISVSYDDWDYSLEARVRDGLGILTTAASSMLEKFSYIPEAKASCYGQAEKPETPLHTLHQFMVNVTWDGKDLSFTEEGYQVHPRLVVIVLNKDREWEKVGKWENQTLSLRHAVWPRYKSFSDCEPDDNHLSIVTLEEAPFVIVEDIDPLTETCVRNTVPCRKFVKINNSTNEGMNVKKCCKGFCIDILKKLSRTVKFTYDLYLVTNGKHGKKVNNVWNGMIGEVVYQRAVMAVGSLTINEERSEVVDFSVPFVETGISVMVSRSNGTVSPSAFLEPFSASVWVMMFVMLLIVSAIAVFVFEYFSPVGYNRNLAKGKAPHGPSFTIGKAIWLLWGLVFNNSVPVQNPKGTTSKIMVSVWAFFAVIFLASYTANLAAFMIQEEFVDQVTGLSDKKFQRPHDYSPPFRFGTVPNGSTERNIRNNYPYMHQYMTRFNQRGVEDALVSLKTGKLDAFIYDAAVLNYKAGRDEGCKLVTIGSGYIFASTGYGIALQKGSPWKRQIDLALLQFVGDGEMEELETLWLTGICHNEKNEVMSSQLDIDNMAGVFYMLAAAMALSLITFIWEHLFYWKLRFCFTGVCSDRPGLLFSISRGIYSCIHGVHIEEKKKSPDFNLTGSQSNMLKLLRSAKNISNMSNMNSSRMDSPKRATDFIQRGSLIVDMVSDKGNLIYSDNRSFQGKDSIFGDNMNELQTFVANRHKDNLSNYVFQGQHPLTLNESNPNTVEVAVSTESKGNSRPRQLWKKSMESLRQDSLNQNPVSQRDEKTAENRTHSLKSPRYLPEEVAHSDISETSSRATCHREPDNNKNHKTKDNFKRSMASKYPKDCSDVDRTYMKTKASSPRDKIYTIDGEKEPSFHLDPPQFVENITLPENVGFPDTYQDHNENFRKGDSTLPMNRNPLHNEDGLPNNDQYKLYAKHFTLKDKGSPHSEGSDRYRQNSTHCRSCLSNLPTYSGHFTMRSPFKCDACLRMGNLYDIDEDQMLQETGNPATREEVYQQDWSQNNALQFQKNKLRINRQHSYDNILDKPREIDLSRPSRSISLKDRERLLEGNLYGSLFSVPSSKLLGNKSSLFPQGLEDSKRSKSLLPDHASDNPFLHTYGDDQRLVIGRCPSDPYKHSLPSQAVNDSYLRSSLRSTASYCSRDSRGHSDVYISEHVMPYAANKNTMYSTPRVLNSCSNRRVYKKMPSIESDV
# Experimental: RNA preparation. mRNA were prepared through in vitro transcription of NR1100 and NR2A cDNAs using the mMessage mMachine kit (Ambion, Tex.). NR1100 and NR2A clones were kindly provided by Dr. Zukin and Dr. Nakanishie.
# Xenopus expression system. Female, oocyte positive Xenopus laevis frogs were purchased from Nasco, Inc. (WI). The frogs were kept on a 12/12 light-dark cycle and maintained on a diet of chopped calf liver every 3 days. Prior to surgery, frogs were anesthetized in a 0.15% Tricaine solution (Sigma, Mo.) for 30-45 minutes. Ovarian sections containing the follicular oocytes were removed through a lateral abdominal incision and were immediately placed in calcium-free ND96 solution (in mM):96 NaCl; 1 MgCl2; 2 KCl; 5 Hepes; 2.5 pyruvate (pH adjusted to 7.4 with NaOH). Following a 2 hr. incubation in 0.2% collagenase type II (Sigma, Mo.) at room temperature, individual defolliculated oocytes were transferred into 60×15 mm glass petri dishes containing ND96 solution (in mM): 96 NaCl; 1 MgCl2; 2 KCl; 1.8 CaCl2; 5 Hepes; 2.5 pyruvate (pH adjusted to 7.4 with NaOH). The isolated oocytes were maintained in an incubator at 18° C. On the following date, batches of 20-40 selected oocytes (Dumont stage V and VI) were injected with 50 nl of prepared RNA solution (0.5 ng of NR1 and 12 ng of NR2A mRNAs per oocyte) using an electronic microinjector (Drummond, Pa.). The injected oocytes were used for electrophysiological experiments following 4-10 day incubation at 18° C.
# Electrical recording and drug application. The ion current recordings were obtained in two electrodes voltage-clamp mode using an Axoclamp-2A amplifier (Axon Instruments, Inc., CA). The microelectrodes were fabricated with a programmed puller (Sutter Instrument Co., CA) from glass capillaries (Dagan, Minn.) and filled with 3M KCl solution. The resistance of filled microelectrodes was in the range of 2.5-3.5 M.OMEGA.. The oocytes were clamped at a holding potential of -70 mV. The membrane current was filtered at 500 Hz and sampled at 100 Hz frequency. The drugs were applied using a gravity driven external perfusion system. The data acquisition and external perfusion control were done using SuperScopeII software package (GW Instruments, MA). All experiments were performed at room temperature of 22-24° C.
# The degree of modulation of the amino acid response by steroids, the percent change, was defined at (I'/I-1)×100%, where I and I' are respectively the agonist-induced currents in the absence and presence of steroid. Throughout, results are expressed as mean±SEM; statistical comparison of groups was carried out using Student's t test.
# [4] = Maximal solubility in the external buffer; assay type: physicochemical; settings: pH 7.2, aqueous buffer, 0.5% dimethyl sulfoxide
# [5] = 200 μM steroid in the absence of PS
# [6] = 200 μM steroid in the presence of 200 μM PS
structure (smiles),measurement,setting,value
"C[C@]12CC[C@@H]3c4ccc(O)cc4CC[C@H]3[C@@H]1CC[C@@H]2OC(=O)CCC(=O)O [17βE(17)HS, 17β-estradiol-17-hemisuccinate]",behavioral assessment,mice,very minor behavioral impairment
same,animals that survived the 100 mg/kg NMDA challenge,[1],50%
same,seizures and mortality induced by NMDA,[2],effective in blocking seizures and mortality
"CC(=O)[C@H]1CC[C@H]2[C@@H]3CC[C@@H]4C[C@@H](OS(=O)(=O)O)CC[C@]4(C)[C@H]3CC[C@]12C [5β3βS, 3β-hydroxy-5β-pregnan-20-one sulfate]",inhibition of the NMDA response by extracellular steroid,NMDA receptor; in the absence of intracellular 5β3βS,48±4%
same,inhibition of the NMDA response by extracellular steroid,NMDA receptor; in the presence of intracellular 5β3βS,44±4%
same,inhibition of the response to 30 μM NMDA,"NMDA receptor; 100 μM steroid applied with NMDA, holding potential -70 mV",59%
same,inhibition of the 30 μM NMDA response with saturating glycine,"NMDA receptor; 100 μM steroid, 10 μM glycine",did not significantly differ from that measured without added glycine
same,average inhibition of the NMDA response,"NMDA receptor; 100 μM steroid, CsCl-containing intracellular solution, 2 cells",49±5.0%
same,inhibition of the NMDA response,"NMDA receptor; 100 μM steroid, in the presence of 100 μM spermine",50±5%
same,inhibition of the peak NMDA response,NMDA receptor; [5],59±3%
same,effect of intracellular steroid on NMDA-induced currents,NMDA receptor; 200 μM steroid in the intracellular buffer,does not inhibit the NMDA-induced currents
same,inhibition of the peak NMDA response,NMDA receptor; [6],50±4%
same,inhibition of the NMDA response,NMDA receptor; after NEM treatment,53±5%
same,inhibition of the NMDA response,NMDA receptor; in the presence of arachidonic acid,49±5%
same,IC50,NMDA receptor; in the absence of PS,143 µM
same,IC50,NMDA receptor; in the presence of 200 μM PS,120 µM
same,direct response to steroid applied alone,"NMDA receptor; steroid alone at greater than or equal to 100 μM, K+ current, not seen with CsCl intracellular solution",often induced a small outward current
same,inhibition of the 50 μM kainate-induced current,kainate receptors,33%
same,inhibition of the 25 μM AMPA-induced current,AMPA receptors,43%
same,inhibition of a near maximal NMDA response (200 μM),[3]; 200 μM steroid,54±8%
same,inhibition of the peak NMDA response,[3]; [5],46±8%
same,inhibition of the peak NMDA response,[3]; [6],54±5%
same,IC50,"[3]; IC50, in the absence of PS",151 µM
same,IC50,"[3]; IC50, in the presence of 200 μM PS",124 µM
"C[C@]12CC[C@@H]3c4ccc(OC(=O)CCC(=O)O)cc4CC[C@H]3[C@@H]1CC[C@@H]2O [17βE(3)HS, 17β-estradiol-3-hemisuccinate]",behavioral assessment,mice,very minor behavioral impairment
same,animals that survived the 100 mg/kg NMDA challenge,[1],75%
same,seizures and mortality induced by NMDA,[2],effective in blocking seizures and mortality
"CC(=O)[C@H]1CC[C@H]2[C@@H]3CC[C@@H]4C[C@H](O)CC[C@]4(C)[C@H]3CC[C@]12C [5β3α, reference compound]",potentiation of the 30 μM NMDA-induced current,NMDA receptor; 50 μM nonsulfated steroid,3.6±8.4%
same,effect on the NMDA response,NMDA receptor; 60 μM nonsulfated steroid,does not produce any significant effect
same,solubility,[4],50 µM
